According to paper PMC7403393 (Scientific Reports, 2020):
Structures can show the parent of a compound that is named as a salt. Where two headings read alike, the source gives them in different places.

Assays:
SARS-CoV-2 [1] = experiment: EC50/EC90 determination by quantification of viral genome (real-time RT-PCR) in VeroE6 cells; type: cell-based, SARS-CoV-2 strain BavPat1; settings: for activity at 40 µM: VeroE6, 40 µM
VeroE6 cells [2] = settings: VeroE6, no virus, CellTiter Blue
SARS-CoV-2 [3] = tested on: SARS-CoV-2
in vitro = settings: African green monkey
SARS-CoV-2 [4] = settings: 5 and 10 µM
VeroE6 cells [5] = tested on: VeroE6 cells; set-up: method as in PMID 29642580; settings: cited from earlier work
SARS-CoV-2 [6] = experiment: microbe, parasite or virus in culture; settings: Severe acute respiratory syndrome coronavirus 2, Vero C1008, read-out: cell viability
SARS-CoV-2 [7] = experiment: microbe, parasite or virus in culture; settings: Severe acute respiratory syndrome coronavirus 2, Caco-2, read-out: replication inhibition
SARS-CoV-2 [8] = tested on: SARS-CoV-2; set-up: method as in earlier work; settings: cited from earlier work
[9] = VeroE6, viral RNA by RT-qPCR, 2 days, read-out: EC50
[10] = VeroE6, viral RNA by RT-qPCR, 2 days, read-out: EC90
[11] = Severe acute respiratory syndrome coronavirus 2, Vero C1008, 48 h, VeroE6, viral RNA by RT-qPCR, 2 days, read-out: EC50
[12] = 10 µM compound, VeroE6, MOI 0.002, 3 days after infection, normalized cell viability relative to 10 µM arbidol
[13] = Severe acute respiratory syndrome coronavirus 2, Vero C1008, 48 h, VeroE6, viral RNA by RT-qPCR, 2 days, read-out: EC90
[14] = selectivity index CC50/EC50, VeroE6
[15] = Severe acute respiratory syndrome coronavirus 2, Vero C1008, 48 h
[16] = Severe acute respiratory syndrome coronavirus 2, Vero C1008, 48 h, VeroE6, viral RNA by RT-qPCR, 2 days

In the case of Spiramycin, the SI (SARS-CoV-2 [1]) is reported as > 5, the EC50 (SARS-CoV-2 [1]; [9]) is reported as 7.95 µM and the EC90 (SARS-CoV-2 [1]; [10]) is reported as 10.5 µM. The CC50 (VeroE6 cells [2]) was > 40 µM.
In the case of `CC(C)(C)NC[C@H](O)c1ccc(O)c(CO)c1` [Levalbuterol], the EC50 (SARS-CoV-2 [1]; [11]) is reported as ≥ 40 µM.
Molecule `CCCCOc1cc(C(=O)OCCN(CC)CC)ccc1N` [Benoxinate hydrochloride] has an Inhibition index (SARS-CoV-2 [3]; [12]) of 1.19.
With `COC(c1ccccc1)(c1ccccc1)[C@H](Oc1nc(C)cc(C)n1)C(=O)O` [Ambrisentan] the EC50 (SARS-CoV-2 [1]; [11]) was ≥ 40 µM and the “activity at 40 µM” value (SARS-CoV-2 [1]) was “lack of activity”.
In the case of `CCOc1nc2cccc(C(=O)O)c2n1Cc1ccc(-c2ccccc2-c2nnn[nH]2)cc1` [Candesartan], the “activity at 40 µM” value (SARS-CoV-2 [1]) is reported as “lack of activity”.
In the case of `C=C[C@H]1C[N@@]2CC[C@H]1C[C@@H]2[C@@H](O)c1ccnc2ccc(OC)cc12` [Quinidine hydrochloride], the SI (SARS-CoV-2 [1]) is reported as > 7.8, the EC50 (SARS-CoV-2 [1]; [11]) is reported as 5.11 µM and the EC90 (SARS-CoV-2 [1]; [13]) is reported as > 40 µM. The CC50 at 2 days (in vitro; VeroE6 cells (no virus)) was > 40 µM.
With `Cl.Clc1ccc(Cn2c(CN3CCCC3)nc3ccccc32)cc1` [Clemizole hydrochloride] the EC50 (SARS-CoV-2 [1]; [9]) was 23.9 µM, the EC90 (SARS-CoV-2 [1]; [10]) was 38.2 µM and the SI (SARS-CoV-2 [1]; [14]) was > 1.7. For the same molecule, the Inhibition index (SARS-CoV-2 [3]; [12]) was 1.01 and the CC50 (VeroE6 cells [2]) was > 40 µM.
For `OCCN1CCN(CCCN2c3ccccc3C=Cc3ccccc32)CC1` [Opipramol dihydrochloride], the EC50 (SARS-CoV-2 [1]; [11]) was 5.05 µM, the EC90 (SARS-CoV-2 [1]; [13]) was 5.97 µM and the SI (SARS-CoV-2 [1]; [14]) was > 7.9. For the same molecule, the Inhibition index (SARS-CoV-2 [3]; [12]) was 1.05 and the CC50 at 2 days (in vitro; VeroE6 cells (no virus)) was > 40 µM.
In the case of `CCOC(=O)c1c(CSc2ccccc2)n(C)c2cc(Br)c(O)c(CN(C)C)c12` [Arbidol], the EC50 (SARS-CoV-2 [1]; [11]) is reported as 10.7 µM, the EC90 (SARS-CoV-2 [1]; [13]) is reported as 15.2 µM and the SI (SARS-CoV-2 [1]; [14]) is reported as > 3.7. For the same molecule, the “antiviral effect in Caco-2 cells (in words)” value (shortened to “antiviral effect … (in words)”) (SARS-CoV-2 [4]) was “weaker than the one observed in VeroE6”, the CC50 (VeroE6 cells [5]) was > 40 µM and the viability at 10 µM (SARS-CoV-2 [6]) was 70 to 90%.
With `O=C(CCCN1CCC2(CC1)C(=O)NCN2c1ccccc1)c1ccc(F)cc1` [Spiperone] the EC90 (SARS-CoV-2 [1]; [13]) was 13.1 µM and the CC50 at 2 days (in vitro) was > 40 µM.
With `C=CCOc1ccccc1OCC(O)CNC(C)C` (centres unmarked) [Oxprenolol hydrochloride] the EC50 (SARS-CoV-2 [1]; [11]) was 20.2 µM, the EC90 (SARS-CoV-2 [1]; [13]) was > 40 µM and the SI (SARS-CoV-2 [1]; [14]) was > 2. For the same molecule, the CC50 at 2 days (in vitro; VeroE6 cells (no virus)) was > 40 µM.
In the case of `CCCCOc1ccc(C(=O)CCN2CCCCC2)cc1` [Dyclonine hydrochloride], the EC50 (SARS-CoV-2 [1]; [11]) is reported as 10 µM, the EC90 (SARS-CoV-2 [1]; [13]) is reported as > 40 µM and the SI (SARS-CoV-2 [1]; [14]) is reported as > 4. The “antiviral effect … (in words)” value (SARS-CoV-2 [4]) was “Arbidol-like result” and the CC50 at 2 days (in vitro; VeroE6 cells (no virus)) was > 40 µM.
Work on `CCC(CC)COC(=O)[C@H](C)N[P@](=O)(OC[C@H]1O[C@@](C#N)(c2ccc3c(N)ncnn23)[C@H](O)[C@@H]1O)Oc1ccccc1` [Remdesivir] yielded an inhibition at 5 µM (SARS-CoV-2 [7]) of 100% and an inhibition at 10 µM (SARS-CoV-2 [7]) of 100%.
In the case of `COc1ncnc(NS(=O)(=O)c2ccc(N)cc2)c1OC` [Sulfadoxine], the EC90 (SARS-CoV-2 [1]; [15]) is reported as > 40 µM, the EC50 (SARS-CoV-2 [1]; [16]) is reported as > 30 µM and the EC50 (SARS-CoV-2 [1]; [9]) is reported as 35.4 µM. The SI (SARS-CoV-2 [1]; [14]) was > 1.13, the “antiviral effect … (in words)” value (SARS-CoV-2 [4]) was “Arbidol-like result” and the CC50 at 2 days (in vitro) was > 40 µM.
With `Cn1nnnc1SCC1=C(C(=O)O)N2C(=O)[C@@H](NC(=O)[C@H](O)c3ccccc3)[C@H]2SC1` [Cefamandole] the EC50 (SARS-CoV-2 [1]; [11]) was ≥ 40 µM.
In the case of `COc1ccc2[nH]c([S+]([O-])Cc3ncc(C)c(OC)c3C)nc2c1` (centres unmarked) [Omeprazole], the EC50 (SARS-CoV-2 [1]; [11]) is reported as 17.1 µM, the EC90 (SARS-CoV-2 [1]; [13]) is reported as 38 µM and the CC50 at 2 days (in vitro; VeroE6 cells (no virus)) is reported as > 40 µM.
In the case of `C[C@@H]1CCO[C@H]2Cn3cc(C(=O)NCc4ccc(F)cc4F)c(=O)c(O)c3C(=O)N12` [Dolutegravir], the EC90 (SARS-CoV-2 [1]; [15]) is reported as > 40 µM, the EC50 (SARS-CoV-2 [1]; [11]) is reported as 22 µM and the SI (SARS-CoV-2 [1]; [14]) is reported as > 1.8. The CC50 at 2 days (in vitro; VeroE6 cells (no virus)) was > 40 µM.
Molecule `Nc1c2c(nc3ccccc13)CCCC2` [Tacrine hydrochloride] has an Inhibition index (SARS-CoV-2 [3]; [12]) of 1.44.
With `CC(C)CN(C[C@@H](O)[C@H](Cc1ccccc1)NC(=O)O[C@H]1CO[C@H]2OCC[C@H]21)S(=O)(=O)c1ccc(N)cc1` [Darunavir] the EC50 (SARS-CoV-2 [1]; [11]) was ≥ 40 µM.
Molecule `C[C@]12CC[C@H](O)C[C@@H]1CC[C@@H]1[C@@H]2CC[C@]2(C)C(=O)CC[C@@H]12` [Epiandrosterone] has an Inhibition index (SARS-CoV-2 [3]; [12]) of 1.07.
Molecule `CN1CCN2c3ncccc3Cc3ccccc3C2C1` (centres unmarked) [Mirtazapine] has an Inhibition index (SARS-CoV-2 [3]; [12]) of 1.03.
`C=C1C[C@@H]2[C@H](CC[C@]3(C)C(=O)CC[C@@H]23)[C@@]2(C)C=CC(=O)C=C12` [Exemestane] gave an EC90 (SARS-CoV-2 [1]; [15]) of 9.86 µM, an EC50 (SARS-CoV-2 [1]; [16]) of 7.51 µM and an Inhibition index (SARS-CoV-2 [3]; [12]) of 1.10. For the same molecule, the “antiviral effect … (in words)” value (SARS-CoV-2 [4]) was “Arbidol-like result” and the CC50 at 2 days (in vitro) was > 40 µM.
For `CC[C@H]1OC(=O)[C@H](C)[C@@H](O[C@H]2C[C@@](C)(OC)[C@@H](O)[C@H](C)O2)[C@H](C)[C@@H](O[C@@H]2O[C@H](C)C[C@H](N(C)C)[C@H]2O)[C@](C)(O)C[C@@H](C)CN(C)[C@H](C)[C@@H](O)[C@]1(C)O` [Azithromycine], the EC50 (SARS-CoV-2 [1]; [11]) was 2.12 µM, the EC90 (SARS-CoV-2 [1]; [13]) was 8.65 µM and the SI (SARS-CoV-2 [1]; [14]) was > 19. For the same molecule, the “antiviral effect in a macaque model” value (SARS-CoV-2 [8]) was “no antiviral effect” and the CC50 at 2 days (in vitro; VeroE6 cells (no virus)) was > 40 µM.
With `CNCC(O)c1ccc(OC(=O)C(C)(C)C)c(OC(=O)C(C)(C)C)c1` (centres unmarked) [Dipivefrin hydrochloride] the Inhibition index (SARS-CoV-2 [3]; [12]) was 1.01.
`CC(=O)[C@H]1CC[C@H]2[C@@H]3CC=C4C[C@@H](O)CC[C@]4(C)[C@H]3CC[C@]12C` [Pregnenolone] gave an Inhibition index (SARS-CoV-2 [3]; [12]) of 1.66.
For `COc1ccccc1OCC(O)CN1CCN(CC(=O)Nc2c(C)cccc2C)CC1` (centres unmarked) [Ranolazine], the EC50 (SARS-CoV-2 [1]; [11]) was ≥ 40 µM.
For `CCCCC[C@H](O)/C=C/[C@H]1[C@H](O)CC(=O)[C@@H]1CCCCCCC(=O)O` [Alprostadil], the EC90 (SARS-CoV-2 [1]; [15]) was > 40 µM, the EC50 (SARS-CoV-2 [1]; [16]) was 5.39 µM and the SI (SARS-CoV-2 [1]; [14]) was > 7.4. For the same molecule, the CC50 at 2 days (in vitro; VeroE6 cells (no virus)) was > 40 µM.
Molecule `O=C([O-])c1ccccc1-c1c2cc(Br)c(=O)cc-2oc2[c]([Hg+])c([O-])c(Br)cc12.[Na+].[Na+].[OH-]` [Merbromin disodium salt] has an Inhibition index (SARS-CoV-2 [3]) of 1.12.
In the case of `CCCc1nc(C(C)(C)O)c(C(=O)O)n1Cc1ccc(-c2ccccc2-c2nnn[nH]2)cc1` [Olmesartan], the EC50 (SARS-CoV-2 [1]; [11]) is reported as ≥ 40 µM and the “activity at 40 µM” value (SARS-CoV-2 [1]) is reported as “lack of activity”.
For `CNCc1cc(-c2ccccc2F)n(S(=O)(=O)c2cccnc2)c1` [Vonoprazan], the EC90 (SARS-CoV-2 [1]; [15]) was > 40 µM, the EC50 (SARS-CoV-2 [1]; [16]) was > 30 µM and the EC50 (SARS-CoV-2 [1]; [9]) was 38.6 µM. For the same molecule, the SI (SARS-CoV-2 [1]; [14]) was > 1 and the CC50 at 2 days (in vitro) was > 40 µM.
With `CN(C)CCCN1c2ccccc2Sc2ccccc21` [Promazine hydrochloride] the Inhibition index (SARS-CoV-2 [3]; [12]) was 1.16.
In the case of `CCN(CCO)CCCC(C)Nc1ccnc2cc(Cl)ccc12` (centres unmarked) [Hydroxychloroquine sulfate], the EC50 (SARS-CoV-2 [1]; [11]) is given as 4.17 µM, the EC90 (SARS-CoV-2 [1]; [13]) is given as 25.5 µM and the “antiviral effect in a macaque model” value (SARS-CoV-2 [8]) is given as “no antiviral effect”. The CC50 at 2 days (in vitro) was > 40 µM.
In the case of `COc1ccc(CC(C)NCC(O)c2ccc(O)c(NC=O)c2)cc1` (centres unmarked) [Formoterole], the EC50 (SARS-CoV-2 [1]; [9]) is reported as ≥ 40 µM.
For `CCN(CC)CCCC(C)Nc1ccnc2cc(Cl)ccc12` (centres unmarked) [Chloroquine diphosphate], the Inhibition index (SARS-CoV-2 [3]; [12]) was 1.35.
